According to patent publication US20240400584A1, “COMPOUNDS AND METHODS FOR MODULATING SPLICING” (REMIX THERAPEUTICS INC., priority 2021, published 2024):
Read-outs that look alike come from different tables or passages of the source.

Tests used:
MYB [1] = assay: RT-qPCR splicing assay, MYB AJ/CJ mRNA; type: cell-based; settings: Homo sapiens, A673 or K562 cells, 24 hours; for IC50: decrease in canonical junction mRNA; for AC50: increase in alternative junction mRNA
Method: (§1) Compounds described herein were used to modulate RNA transcript abundance in cells. The expression of a target mRNA was measured by detecting the formation of an exon-exon junction in the canonical transcript (CJ). A compound mediated exon-inclusion event was detected by observing an increase in formation OF A new junction with an alternative exon (AJ). Real-time qPCR assays were used to detect these splicing switches and interrogate the potency of various compounds towards different target Genes. A high-throughput real time quantitative PCR (RT-qPCR) assay was developed to measure these two isoforms of the mRNA (CJ and AJ) for exemplary genes, such as HTT, SMN2, and MYB, together with a control housekeeping gene, GAPDH or GUSB or PPIA, used for normalization. Briefly, the A673 or K562 cell line was treated with various compounds described herein (e.g., compounds of Formula (i)). After treatment, the levels of the HTT, MYB, or SMN2 mRNA targets were determined from each sample of cell lysate by cDNA synthesis followed by qPCR.
(§2) The A673 cell line was cultured in DMEM with 10% FBS. Cells were diluted with full growth media and plated in a 96-well plate (15,000 cells in 100 ul media per well). The plate was incubated at 37° C. with 5% CO2 for 24 hours to allow cells to adhere. An 11-point 3-fold serial dilution of the compounds was made in DMSO then diluted in media in an intermediate plate. Compounds were transferred from the intermediate plate to the cell plate with the top dose at a final concentration of 10 uM in the well. Final DMSO concentration was kept at or below 0.25%. The cell plate was returned to the incubator at 37° C. with 5% CO2 for an additional 24 hours.
(§3) The K562 cell line was cultured in IMDM with 10% FBS. For K562, cells were diluted with full growth media and plated in either a 96-well plate (50,000 cells in 50 uL media per well) or a 384-well plate (8,000-40,000 cells in 45 uL media per well). An 11-point 3-fold serial dilution of the compounds were made in DMSO then diluted in media in an intermediate plate. Compound was transferred from the intermediate plate to the cell plate with the top dose at a final concentration of 10 uM in the well. Final DMSO concentration was kept at or below 0.25%. Final volume was 100 uL for 96-well plate and 50 uL for 384-well plate. The cell plate was then placed in an incubator at 37° C. with 5% CO2 for 24 hours.
(§4) The cells were then gently washed with 50 uL-100 uL Cold Pbs before proceeding to addition of lysis buffer. 30 uL-50 μL of room temperature lysis buffer with DNAse I (and optionally RNAsin) was added to each well. Cells were shaken/mixed thoroughly at room temperature for 5-10 minutes for lysis to take place and then 3 uL-5 μL of room temperature stop solution was added and wells were shaken/mixed again. After 2-5 minutes, the cell lysate plate was transferred to ice for RT-qPCR reaction setup. The lysates could also be frozen at −80° C. for later use.
(§5) In some cases, a direct lysis buffer was used. an appropriate volume of 3× lysis buffer (10 mM tRis, 150 mM NaCl, 1.5%-2.5% Igepal and 0.1-1 U/uL RNAsin, pH 7.4) was directly added to either K562 or A673 cells in media and mixed by pipetting 3 times. The plates were then incubated at room temperature with shaking/rocking for 20-50 minutes to allow for lysis to take place. After this time, the cell lysate plate was transferred to ice to set up for the RT-qPCR reactions. The lysates could also be frozen at −80° C. for later use.
(§6) To set up 10 uL RT-QpcR reactions, cell lysates were transferred to 384-well qPCR plates containing the master mix according to the table below. The plates were sealed, gently vortexed, and spun down before the run. The volumes were adjusted accordingly in some instances where the reaction was carried in 20 µL. The table below summarizes the components of the RT-qPCR reactions:
(§7) The RT-qPCR reaction was performed using a QuantStudio (ThermoFisher) under the following fast cycling conditions. […]

HTT [2] = assay: RT-qPCR splicing assay, HTT AJ/CJ mRNA; type: cell-based, human; settings: A673 or K562 cells; for IC50: decrease in canonical junction mRNA; for AC50: increase in alternative junction mRNA
Method: as §1, §2, §3, §4, §5, §6, §7

Target C = assay: Gene panel canonical junction qPCR assay, Target C CJ mRNA (Table 7); type: cell-based, human; settings: read-out: Target C CJ mRNA decrease IC50
Method: as §1
(§8) The data analysis was performed by first determining the ΔCt vs the housekeeper gene. This ΔCt was then normalized against the DMSO control (ΔΔCt) and converted to RQ (relative quantification) using the 2^(−ΔΔCt) equation. The RQ were then converted to a percentage response by arbitrarily setting an assay window of 3.5 and 4.0 ΔCt for HTT-CJ and MYB-CJ respectively and an assay window of 9 and 3 ΔCt for HTT-AJ and MYB-AJ in 96 well format (50,000 K562 cells/well and 15,000 A673 cells per well) and an assay window of 3 and 4 ΔCt for HTT-CJ and MYB-CJ respectively and an assay window of 5 and 3 ΔCt for HTT-AJ and MYB-AJ respectively in 384 well format (8,000 K562 cells/well example). […] The percentage response was then fitted to the 4 parametric logistic equation to evaluate the concentration dependence of compound treatment. The increase in AJ mRNA is reported as AC50 (compound concentration having 50% response in AJ increase) while the decrease in CJ mRNA levels is reported as IC50 (compound concentration having 50% response in CJ decrease).
(§9) Additional studies were carried out for a larger panel of genes using the protocol provided above. The junction between flanking upstream and downstream exons was used to design canonical junction qPCR assays. At least one of the forward primer, reverse primer or the CY5-labeled 5′ nuclease probe (with 3′ quencher such as ZEN/Iowa Black FQ) was designed to overlap with the exon junction to capture the CJ mRNA transcript. BLAST was used to confirm the specificity of the probeset and parameters such as melting temperature, GC content, amplicon size, and primer dimer formation are considered during their design. Data for the decrease in CJ mRNA levels for four exemplary genes (HTT, SMN2, MYB, and Target C) analyzed in this panel are reported as IC50 (compound concentration having 50% response in CJ decrease).

HTT [3] = assay: Gene panel canonical junction qPCR assay, HTT CJ mRNA (Table 7); type: cell-based, human; settings: read-out: HTT CJ mRNA decrease IC50
Method: as §1, §8, §9

MYB [4] = assay: Gene panel canonical junction qPCR assay, MYB CJ mRNA (Table 7); type: cell-based; settings: Homo sapiens, read-out: MYB CJ mRNA decrease IC50
Method: as §1, §8, §9

SMN2 = assay: Gene panel canonical junction qPCR assay, SMN2 CJ mRNA (Table 7); type: cell-based; settings: Homo sapiens, read-out: SMN2 CJ mRNA decrease IC50
Method: as §1, §8, §9

IC50 (MYB [1]) | Structure (SMILES) | AC50 (MYB [1]) | IC50 (HTT [2]; Homo sapiens, 24 h) | AC50 (HTT [2]; Homo sapiens, 24 h) | IC50 (Target C; Homo sapiens) | IC50 (HTT [3]; Homo sapiens) | IC50 (MYB [4]) | IC50 (SMN2) | IC50 (HTT [2]; 24 hours) | AC50 (HTT [2]; 24 hours) | IC50 (Target C) | IC50 (HTT [3])
> 10 µM | Cc1cc(-c2ccc3c(c2)COc2nc(N4CC[C@H](NC(C)(C)C)C4)ccc2-3)cnn1 (single isomer, unassigned) [Compound 273, N-tert-butyl-1-[8-(6-methylpyridazin-4-yl)-6H-isochromeno[3,4-b]379yrrolid-3-yl]379yrrolidine-3-amine] | > 10 µM | > 10 µM | > 10 µM | > 10 µM | > 10 µM | > 10 µM | > 10 µM |  |  |  | 
> 10 µM | Cc1cc(-c2ccc3c(c2)COc2nc(N4CC[C@@H](NC(C)(C)C)C4)ccc2-3)cnn1 (single isomer, unassigned) [Compound 274, N-tert-butyl-1-[8-(6-methylpyridazin-4-yl)-6H-isochromeno[3,4-b]379yrrolid-3-yl]379yrrolidine-3-amine] | > 10 µM | 1 to 10 µM | > 10 µM | > 10 µM | 1 to 10 µM | > 10 µM | 0.1 to 1 µM |  |  |  | 
 | CN(c1ccc2c(n1)COc1cc(-n3cccn3)ccc1-2)[C@@H]1C[C@H]2CC[C@@H](C1)N2 [Compound 109] |  |  |  |  |  |  |  | 0.1 to 1 µM | 0.1 to 1 µM |  | 
 | CN(c1ccc2c(c1)CCOc1cc(-c3cn[nH]c3)ccc1-2)[C@@H]1C[C@H]2CC[C@@H](C1)N2 [Compound 112] |  |  |  | > 10 µM |  |  |  |  |  |  | 
 | CN(c1ccc2c(n1)CCOc1cc(-c3cn[nH]c3)ccc1-2)C1CC(C)(C)NC(C)(C)C1 [Compound 114] |  | 0.1 to 1 µM | < 0.1 µM | < 0.1 µM | 0.1 to 1 µM |  |  |  |  |  | 
 | CN(c1ccc2c(n1)CCOc1cc(-n3cccn3)ccc1-2)[C@@H]1C[C@H]2CC[C@@H](C1)N2 [Compound 128] |  | > 10 µM | > 10 µM | > 10 µM | > 10 µM |  |  |  |  |  | 
 | c1cc2c(cc1N[C@@H]1C[C@H]3CC[C@@H](C1)N3)CCOc1cc(-c3cn[nH]c3)ccc1-2 [Compound 132] |  | > 10 µM | > 10 µM | > 10 µM | > 10 µM |  |  |  |  |  | 
 | CN(c1cnc2c(n1)OCc1cc(-c3cn[nH]c3)ccc1-2)C1CC(C)(C)NC(C)(C)C1 [Compound 138] |  |  |  | 1 to 10 µM |  |  |  | 1 to 10 µM | 1 to 10 µM |  | 1 to 10 µM
 | CN(c1ccc2c(n1)OCc1cc(-n3cccn3)ccc1-2)[C@H]1[C@@H]2CNC[C@@H]21 [Compound 194] |  | 1 to 10 µM | 1 to 10 µM | > 10 µM | > 10 µM |  | > 10 µM |  |  |  | 
 | c1cnn(-c2ccc3c(c2)COc2nc(N(C4CC4)[C@@H]4C[C@H]5CCC[C@@H](C4)N5)ccc2-3)c1 [Compound 203] |  | 1 to 10 µM | 1 to 10 µM |  |  |  |  |  |  |  | 
 | c1cnn(-c2ccc3c(c2)COc2nc(N(C4CC4)[C@@H]4C[C@H]5CC[C@@H](C4)N5)ccc2-3)c1 [Compound 205] |  | 1 to 10 µM | 0.1 to 1 µM |  |  |  |  |  |  |  | 
0.1 to 1 µM | Cc1cc(-c2ccc3c(c2)COc2nc(O[C@@H]4C[C@H]5C[C@@H](C4)N5)ccc2-3)ccn1 [Compound 209] | 1 to 10 µM |  |  | 1 to 10 µM | 0.1 to 1 µM | 0.1 to 1 µM | 0.1 to 1 µM |  |  |  | 
> 10 µM | c1cc2c(cc1-c1cn[nH]c1)COc1nc(N3CCC34CCCNC4)ccc1-2 (stereo not drawn) [Compound 210] |  | > 10 µM |  |  |  |  |  |  |  |  | 
0.1 to 1 µM | c1cc2c(cc1-c1cn[nH]c1)COc1nc(N3CCC(NC4CC4)C3)ccc1-2 (stereo not drawn) [Compound 211] |  | < 0.1 µM |  |  |  |  |  |  |  |  | 
0.1 to 1 µM | CC(C)(C)NC1CCN(c2ccc3c(n2)OCc2cc(-c4cn[nH]c4)ccc2-3)C1 (stereo not drawn) [Compound 212] |  | < 0.1 µM |  |  |  |  |  |  |  |  | 
1 to 10 µM | CC(C)(C)NC1CCN(c2ccc3c(n2)OCc2cc(-n4cccn4)ccc2-3)C1 (stereo not drawn) [Compound 213] |  | 0.1 to 1 µM |  |  |  |  |  |  |  |  | 
> 10 µM | c1cnn(-c2ccc3c(c2)COc2nc(N4CCC(NC5CC5)C4)ccc2-3)c1 (stereo not drawn) [Compound 214] |  | > 10 µM |  |  |  |  |  |  |  |  | 

Structure (SMILES) | IC50 (MYB [1]) | AC50 (MYB [1]) | IC50 (HTT [2]; Homo sapiens, 24 h) | AC50 (HTT [2]; Homo sapiens, 24 h) | IC50 (Target C; Homo sapiens) | IC50 (HTT [3]; Homo sapiens) | IC50 (MYB [4]) | IC50 (SMN2) | IC50 (HTT [2]; 24 hours) | AC50 (HTT [2]; 24 hours) | IC50 (Target C) | IC50 (HTT [3])
CN(c1ccc2c(n1)CCOc1cc(-c3cn[nH]c3)ccc1-2)[C@@H]1C[C@H]2CC[C@@H](C1)N2 [Compound 127] | > 10 µM | > 10 µM | > 10 µM | > 10 µM |  | > 10 µM | > 10 µM | > 10 µM |  |  |  | 
c1cnn(-c2ccc3c(c2)OCc2nc(N[C@@H]4C[C@H]5CC[C@@H](C4)N5)ccc2-3)c1 [Compound 135] | 1 to 10 µM | > 10 µM |  |  |  |  | 1 to 10 µM | 1 to 10 µM | 1 to 10 µM | 1 to 10 µM | 1 to 10 µM | 1 to 10 µM
c1cnn(-c2ccc3c(c2)OCCc2nc(N[C@@H]4C[C@H]5CC[C@@H](C4)N5)ccc2-3)c1 [Compound 136] | > 10 µM | > 10 µM | > 10 µM | > 10 µM | > 10 µM | > 10 µM | > 10 µM | > 10 µM |  |  |  | 
c1cc2c(cc1-c1cn[nH]c1)OCCc1nc(N[C@@H]3C[C@H]4CC[C@@H](C3)N4)ccc1-2 [Compound 140] | > 10 µM | > 10 µM | > 10 µM | > 10 µM |  | > 10 µM | > 10 µM | > 10 µM |  |  |  | 
CCN(c1ccc2c(n1)OCc1cc(-n3cccn3)ccc1-2)[C@@H]1C[C@H]2CCC[C@@H](C1)N2 [Compound 195] | 1 to 10 µM | > 10 µM |  |  | 1 to 10 µM | 0.1 to 1 µM | 1 to 10 µM | 0.1 to 1 µM |  |  |  | 
